# According to patent US10799442B2, “Compounds useful in the treatment and/or care of the skin, hair, nails, and/or mucous membranes” (LUBRIZOL ADVANCED MATERIALS, INC., priority 2015, dated 2020):
# What was measured:
# [1] = tested on: SOX2; test: Modulation of stem cell markers in HEKa, Real Time PCR Arrays (SOX2 mRNA); type: cell-based, Human; settings: 48 hours
# Description: The candidate compound is evaluated for the modulation of several stem cell markers, those transcription factors regulated by miRNA145 (SOX2, OCT4, KLF4 and MYC). Gene expression profiles are analyzed by Real Time PCR Arrays using a 96-well panel for use with SYBR® Green (BioRad) to detect mRNA expression levels of stem cell markers plus three housekeeping genes, and five controls, in Human Epidermal Keratinocytes from adult (HEKa) (Cascade Biologics).
# HEKa cells are seeded at 6.0×10^5 cells/well in 6-well plates and incubated in culture medium, Epilife with defined Growth Supplement (EDGS) (Cascade Biologics), for 24 hours at 37° C. in a water-saturated atmosphere of 95% air and 5% CO2. After 24 hours, the medium is removed and the cells are incubated with the synthetic peptide DD14024 at several concentrations in a culture medium. Cells are incubated with culture medium only and these provide the basal conditions. After 48 hours of treatment at 37° C. in a CO2 incubator, the cells are lysed directly in the wells, and RNA is purified following the protocol described on the RNeasy Mini kit (Qiagen) according to the manufacturer's protocol. After RNA elution, quantification and analysis of purity of RNA samples are performed with a biophotometer (Eppendorf). For each sample, 2 μg of high quality RNA is retrotranscribed with iScript Advanced (BioRad) in a final volume of 20 μl. The complete reaction mix is incubated in a thermal cycler (Eppendorf) at 42° C. for 30 minutes and the reaction is stopped at 85° C. for 5 minutes (?). Complementary DNA is amplified by qPCR in a real-time PCR thermocycler (BioRad) using SYBR Green Supermix (BioRad) in the 96-well panel for use with SYBR® Green (BioRad). SYBR Green binds to double-stranded DNA molecules and emits fluorescence which is quantified; the fluorescence intensity is proportional to the amount of the product in the PCR reaction. […] Fold change relative to the expression of the sample genes and reference genes is calculated using normalized expression (ΔΔ(Ct)) method using CFX Manager Software (BioRad). […]
# [2] = tested on: Keratin 14; test: Keratins expression profile in HEKa with 1 mM CaCl2, Real Time PCR Arrays (Keratin 14); type: cell-based, Human; settings: Keratin 14 mRNA, 48 hours
# Description: The candidate compound is assayed for its ability to recover the basal keratinocyte state. The keratinocytes of the four layers of the epidermis present different expression patterns of keratins. Basal keratinocytes strongly express Keratin 14 and when differentiated, Keratin 10 is increased. To elucidate the keratinocyte state (basal or differentiated), the expression profile of keratins is analyzed by Real Time PCR Arrays, using a 96-well panel for use with SYBR® Green (BioRad) to detect mRNA expression levels of two keratin genes (Keratins 10 and 14) plus three housekeeping genes, and five controls, in Human Epidermal Keratinocytes from adult (HEKa) (Cascade Biologics).
# HEKa cells are seeded at 6.0×10^5 cells/well in 6-well plates and incubated in culture medium Epilife with defined Growth Supplement (EDGS) (Cascade Biologics), for 24 hours at 37° C. in a water-saturated atmosphere of 95% air and 5% CO2. After 24 hours, the medium is removed and the cells are incubated with the synthetic peptide candidate at several concentrations in culture medium that contains 1 mM CaCl2) (Sigma) to induce differentiation of keratinocytes. Cells are incubated with 1 mM CaCl2) in culture medium and this provides a positive control of differentiation. Cells are incubated with culture medium only and these provide basal conditions. After 48 hours of treatment at 37° C. in a CO2 incubator, the cells are lysed directly in the wells, and RNA is purified following the protocol described on the RNeasy Mini kit (Qiagen) according to the manufacture's protocol. After RNA elution, quantification and analysis of purity of RNA samples are performed with a biophotometer (Eppendorf). […] SYBR Green binds to double-stranded DNA molecules and emits fluorescence which is quantified; the fluorescence intensity is proportional to the amount of the product in the PCR reaction. […] Fold change relative to the expression of the sample genes and reference genes is calculated using normalized expression (ΔΔ(Ct)) method using CFX Manager Software (BioRad).
substance,measurement,setting,value
"Ac-QEMRMQ-OH [DD14024, Ac-Gln-Glu-Met-Arg-Met-Gln-OH]",Fold induction respect to basal conditions,[1]; 0.001 mg/ml,1.62 ± 0.18
same,Fold induction respect to basal conditions,[1]; 0.005 mg/ml,3.00 ± 0.55
same,Fold induction respect to basal conditions,[1]; 0.01 mg/ml,2.81 ± 0.26
same,Fold induction respect to positive control of differentiation,"[2]; 1 mM CaCl2, 0.001 mg/ml",1.29 ± 0.15
same,Fold induction respect to positive control of differentiation,"[2]; 1 mM CaCl2, 0.005 mg/ml",1.36 ± 0.15
same,Fold induction respect to positive control of differentiation,"[2]; 1 mM CaCl2, 0.01 mg/ml",1.30 ± 0.09
